The record followed here is patent US20160114044A1, “COMPOSITON BASED ON BIOCOMPATIBLE ANIONIC POLYMER FOR DRUG DELIVERY AND PREPARING METHOD THEREOF” (RESEARCH & BUSINESS FOUNDATION SUNGKYUNKWAN UNIVERSITY, priority 2014, published 2016).

Data set [1] in a line: Stability and size of micro-dispersions in distilled water. Type of data set: physicochemical. The following applies: dispersed in water without γ-PGA. Here is the method:
The particle size of the redispersed solutions of γ-PGA/Ptx and γ-PGA/Imq was measured using Electrophoretic Light Scattering-ELS Z (Otsuka Electronics, Osaka, Japan). The stability of the dispersion was assessed by observing the samples for aggregation and phase separation after storing the sample at 4° C. for 1 week after dispersion in distilled water. The morphology of theses micro-dispersions were observed through FE-SEM (JSM-7000F, JEOL Ltd. Japan) and FE-TEM (JEM-2100F HR, JEOL Ltd. Japan). For the SEM sample preparation, the lyophilized and redispersed suspension was deposited on a silicon wafer plate and vacuum-dried to remove water, followed by platinum coating using a Technics Hummer II sputter coater at 30 mA for 90 s. For TEM sample preparation, a drop (2 μL) of redispersed suspension was placed onto a formvar/carbon coated copper grid, followed by vacuum-drying to evaporate water.
Distinct monodisperse peaks for γ-PGA/Imq and γ-PGA/Ptx/Imq were observed, indicating uniform size distribution (FIG. 3). In case of γ-PGA/Ptx, two peaks were observed, which might be due to a high aspect ratio of the paclitaxel crystal.

Data set [2] is described as follows: In-vitro viability assay (MTS). The following applies: mouse, bone marrow derived dendritic cells (BMDCs), after 48 h, normalized to untreated cells, read-out: cell viability / proliferation of BMDCs. Type of data set: cell-based.
Procedure: BMDCs were isolated from mouse bone marrow as reported previously. MTS assay for analysis of mitochondrial activity was used as a measure of cell viability. 1×10^4 cells in 100 μL media were seeded per well in a 96 well plate (Corning Costar, Cambridge, Mass., USA). 100 μl of sample dispersion was added to cell culture media and incubated for 24 h and 48 h at 37° C. and 5% CO2. After the incubation, 20 μL of MTS solution-Cell Titer 96 Aqueous One Solution kit (Promega, Madison, Wis., USA) was added to each well and incubated for 2 h. The absorbance of the samples was measured at 490 nm (VersaMax, Molecular Devices, Sunnyvale, Calif., USA) and normalized with respect to absorbance of untreated cells.

With `CC(=O)O[C@H]1C(=O)[C@@]2(C)[C@H]([C@H](OC(=O)c3ccccc3)[C@]3(O)C[C@H](OC(=O)[C@H](O)[C@@H](NC(=O)c4ccccc4)c4ccccc4)C(C)=C1C3(C)C)[C@]1(OC(C)=O)CO[C@@H]1C[C@@H]2O` [paclitaxel], the “dispersion state in water without γ-PGA” value in data set [1] was “aggregation and precipitation”.

As for `CC(C)Cn1cnc2c(N)nc3ccccc3c21` [imiquimod], the “dispersion state in water without γ-PGA” value in data set [1] was “aggregation and precipitation”. Further, the viability at 48 h in data set [2] worked out at 250%.
